Data reported in ChEMBL document CHEMBL1137303, “Progressive docking: a hybrid QSAR/docking approach for accelerating in silico high throughput screening” (J Med Chem, 2006).

Assays:
[1] = target: T1, Sex hormone-binding globulin (Homo sapiens) (UniProt P04278); assay: Displacement of [3H]DHT from human SHBG relative to testosterone
T1 sequence (whole entry): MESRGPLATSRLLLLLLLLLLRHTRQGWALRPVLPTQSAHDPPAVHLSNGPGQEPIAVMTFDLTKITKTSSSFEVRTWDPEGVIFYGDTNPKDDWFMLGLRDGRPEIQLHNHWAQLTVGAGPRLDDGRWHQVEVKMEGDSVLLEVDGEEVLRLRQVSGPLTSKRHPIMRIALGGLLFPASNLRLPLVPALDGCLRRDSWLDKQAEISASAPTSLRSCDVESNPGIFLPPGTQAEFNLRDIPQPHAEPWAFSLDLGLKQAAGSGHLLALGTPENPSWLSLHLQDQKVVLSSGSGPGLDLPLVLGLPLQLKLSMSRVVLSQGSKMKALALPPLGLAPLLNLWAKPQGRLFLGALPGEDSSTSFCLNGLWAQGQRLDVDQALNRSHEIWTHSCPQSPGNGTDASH

[2] = target: T2, Sex hormone-binding globulin (Homo sapiens, UniProt P04278); assay: Displacement of [3H]DHT from human SHBG
T2 sequence (P04278 whole entry): T1 sequence (whole entry)

SMILES | relative binding affinity (RBA) [1] | IC50 [2]
Cc1cc(Cc2cc(C)c(O)c(CO)c2)cc(CO)c1O | 3330 | 48.2 µM
CCC(c1ccc(O)c(O)c1)C(CC)c1ccc(O)c(F)c1 (stereo not given) | 714 | 10.3 µM
CC12CCNC(=O)C=C1CCC1C2CCC2(C)C(O)CCC12 (stereo not given) | 66 | 0.95 µM
C[C@]12CC[C@@H]3c4ccc(O)cc4CC[C@H]3[C@@H]1CC[C@@H]2O | 3.5 | 
CCCC1c2ccc(O)cc2CC1c1ccc(O)cc1 (stereo not given) | 768 | 11.1 µM
C[C@]12CC[C@H]3[C@@H](CCC4=CC(=O)CC[C@@]43C)[C@@H]1CC[C@@H]2O [TESTOSTERONE] |  | 0.014 µM
